Source: article PMC3747139 (PLoS ONE, 2013)
Read-outs that look alike come from different tables or passages of the source.

Legend:
HQF DNA d(TTAGGG)4 = test: Isothermal titration calorimetry; format: binding, human; settings: ITC; for K1 x 10^-7 / K2 x 10^-5: two-sites model, 100 mM KBPES pH 7.0; for K1 x 10^-7: mode-1, 25°C; for K2 x 10^-5: mode-2, 25°C; for Kd: quadruplex DNA, read-out: Kd, higher affinity interaction (mode-1)
Description: When quadruplex DNA melts to form ssDNA structure, SG fluorescence intensity gradually reduces as SG has no binding to ssDNA. Each time, 5 µM of HQF DNA [d(T2AG3)4)], 5 µM of dsDNA (prepared by mixing equal concentration of poly-dA-dT and poly-dT-dA), 5 µM ssDNA ( poly dT alone) and 1 µM of each ligand was incubated at 4°C for 16 h, and used for melting studies. […] Affinity, stoichiometry and thermodynamic parameters for quadruplex-ligand complex were studied with 60 µM of ligand and 10 µM of HQF DNA using Microcal VP-ITC (Northampton, MA, USA). Ligand addition to G-quadruplex DNA was made every 180 seconds. Titration experiments were performed thrice and blank correction was made each time to minimize error.
On integrating the heats produced per injection, with respect to time and conversion to per mole basis, the binding isotherm (Figure 8A) corresponding to each ligand was obtained. […] After making blank correction, the heat data was fitted with “two-independent sites” model and analyzed using Origin 7.1 to calculate thermodynamic parameters.

B16F10 melanoma cells = test: Preclinical study: survival of tumor-induced mice; format: in vivo, C57BL6/J mice; settings: 200 µM L1, 125 µM L2, 50 µM L3 on alternate days for 2 weeks
Description: C57BL6/J mice were used from the animal house facility located at CCMB (Hyderabad, India). All animal experimental studies were carried out in strict accordance with the recommendations in the guide for the care and use of laboratory animals of Centre for Cellular and Molecular Biology (CCMB). All the animal experimental protocols were approved by the Institutional Animal Ethical Committee (IAEC) of Centre for Cellular and Molecular Biology (CCMB with Permit number: CPCSEA 20/1999, Ministry of Environment and Forest, Government of India).The protocol was approved by the Institutional Animal Ethical Committee (IAEC) of CCMB (Protocol number: IAEC 16/2012). All the surgery was performed under sodium pentobarbital anaesthesia, and all efforts were made to minimize suffering. C57BL6/J mice, 6–8 weeks old, were subcutaneously injected with 2×10^5 B16F10 melanoma cells, in the […] region. After the tumor attained a size of 500–1000 mm^3 (≈9 days following cancer cell implantation), mice were grouped and treated as follows.
Group (i) was treated with vehicle control (4 mice), group (ii) with 200 µM of L1 (4 mice), group (iii) with 125 µM of L2 (4 mice) and group (iv) with 50 µM of L3 (4 mice). These experiments were repeated thrice and mean values were considered. Size of tumor was measured every day at a fixed time. The tumor sizes were calculated using the formula (0.5 ab^2), where ‘a’ was the largest dimension and ‘b’ was the smallest dimension of the tumor. The experiment was terminated when the average tumor volume of the control/treated group was 10000–12000 mm^3.

B16F10 = test: Cell count assay (trypan blue); format: cell-based, human; settings: for Number of viable cells after 24 h of ligand treatment: B16F10, 24 h; for Number of viable cells after 48 h of ligand treatment: B16F10, 48 h
Description: (§1) Normal and tumor cell lines were seeded at 20000–40000 cells/cm^2 with 0.2 mL/cm^2 media and incubated for 48 h at 37°C, 6% CO2, 95% relative humidity. […] After 24 h and 48 h of incubation, cells were washed with 300 µl PBS or 0.02% EDTA, trypsinized, followed by harvesting at 37°C. 200 µl cell suspension was transferred into 1.5 ml microcentrifuge tube. To the cell suspension, 300 µl PBS followed by 500 µl of 0.4% trypan blue solution was added. To get the homogenised solution, the microcentrifuge tube was gently tapped for 5 min, 20 µl of cell suspension was loaded in to a chamber of the haemocytometer.

MCF-7 = test: Cell count assay (trypan blue); format: cell-based, human; settings: for Number of viable cells after 24 h of ligand treatment: MCF-7, 24 h; for Number of viable cells after 48 h of ligand treatment: MCF-7, 48 h;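 as to Number of viable cells after 48 h of ligand treatment: each ligand tested at its own IC50 concentration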
Description: as §1

A549 = test: Cell count assay (trypan blue); format: cell-based, human; settings: for Number of viable cells after 24 h of ligand treatment: A549, 24 h; for Number of viable cells after 48 h of ligand treatment: A549, 48 h;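 as to Number of viable cells after 24 h of ligand treatment: each ligand tested at its own IC50 concentration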
Description: as §1

[1] = tested on: HQF DNA (human quadruplex forming DNA), d(TTAGGG)4 (DNA, G4) TTAGGGTTAGGGTTAGGGTTAGGG; test: SYBR Green fluorescence melting; settings: 1 µM ligand, 5 µM DNA, melting buffer not stated
[2] = Cell count assay (trypan blue); format: cell-based; design: concentration or dose not given beside the values; settings: human; for viability at 24 h: read-out: Number of viable cells after 24 h of ligand treatment; for viability at 48 h: read-out: Number of viable cells after 48 h of ligand treatment
Description: as §1

B16F10 cells = test: Flow cytometry Annexin V / PI dot plot; format: cell-based, human; settings: 200 µM L1, 125 µM L2, 50 µM L3, 3 h
Description: Since MTT and cell culture assays yielded encouraging results with B16F10 cells they were used for confocal and flow cytometry experiments. After 90% confluence, the cells were treated with 200 µM, 125 µM and 50 µM of L1, L2, L3 respectively, for 3 h. 1×10^6 cells were washed with 2× binding buffer and resuspended in 100 µl binding buffer and Annexin-V-FITC (1.0 µg). The cells were then incubated at room temperature for 10 min, followed by the addition of 400 µl of binding buffer containing 1 µl of Propidium Iodide (PI). Stained cells were analyzed using FACS Calibur Flow Cytometer from B.D. Biosceinces (USA). Annexin-V-FITC and PI labelled cells were excited using 488 nm solid-state laser and fluorescence emission intensity was captured using 530/30 and 585/42 band pass filters respectively.

[3] = CRL-2115 cells (normal cell line), CRL-2115, 24 h
[4] = CRL-2115 cells (normal cell line), CRL-2115, 48 h
[5] = CRL-2120 cells (normal cell line), CRL-2120, 24 h
[6] = CRL-2120 cells (normal cell line), CRL-2120, 48 h
[7] = NCM-460 cells (normal cell line), NCM-460, 24 h
[8] = NCM-460 cells (normal cell line), NCM-460, 48 h

| Structure (SMILES) | K2 x 10^-5 (HQF DNA d(TTAGGG)4) | Number of days survived (B16F10 melanoma cells) | survival period of treated mice (B16F10 melanoma cells) | Number of viable cells after 24 h of ligand treatment (B16F10) | Number of viable cells after 48 h of ligand treatment (B16F10) | Number of viable cells after 24 h of ligand treatment (MCF-7) | Number of viable cells after 48 h of ligand treatment (MCF-7) | Number of viable cells after 24 h of ligand treatment (A549) | Number of viable cells after 48 h of ligand treatment (A549) | viability at 24 h [2, 3] | viability at 48 h [2, 4] | viability at 24 h [2, 5] | viability at 48 h [2, 6] | viability at 24 h [2, 7] | viability at 48 h [2, 8] | Cells Alive (B16F10 cells) | Early apoptotic (B16F10 cells) | Late apoptotic (B16F10 cells) | Necrotic (B16F10 cells) | Total apoptotic cells (B16F10 cells) | further results |
| --- | --- | --- | --- | --- | --- | --- | --- | --- | --- | --- | --- | --- | --- | --- | --- | --- | --- | --- | --- | --- | --- |
| Cc1cn([C@H]2C[C@H](N=[N+]=[N-])[C@@H](CO)O2)c(=O)[nH]c1=O [Ligand L1, 1-(4-azido 5-(hydroxylmethyl)tetrahydrofuran-2-yl)-5-methyl pyrimidi-ne-2,4(1H,3H)-dione, reference compound] | 2.14 (± 0.2) | 25 (±5) days | ~4 weeks | ++ (Viable cells in the range of 50%–60%) | +++ (Viable cells which are equal or less than 30%) | + (Viable cells in the range of 80%–90%) | ++ (Viable cells in the range of 50%–60%) | + (Viable cells in the range of 80%–90%) | ++ (Viable cells in the range of 50%–60%) | 80 to 90% | 50 to 60% | 80 to 90% | 50 to 60% | 80 to 90% | 50 to 60% | 68.78% | 02.61% | 12.05% | 16.56% | 14.66% | K1 x 10^-7 (HQF DNA d(TTAGGG)4): 0.72 (± 0.3); ΔTm ([1]; derived from two Tm (28 and 27 °C)): 1 °C |
| Cc1cn([C@H]2C[C@H](n3cc(-c4ccccc4)nn3)[C@@H](CO)O2)c(=O)[nH]c1=O [Ligand L2] | 2.61 (± 0.3) | 31 (±4) days | ~5 weeks | ++ (Viable cells in the range of 50%–60%) | +++ (Viable cells which are equal or less than 30%) | + (Viable cells in the range of 80%–90%) | ++ (Viable cells in the range of 50%–60%) | ++/++ (Viable cells in the range of 50%–60%) | ++/++ (Viable cells in the range of 50%–60%) | 80 to 90% | 50 to 60% | 80 to 90% | 50 to 60% | 80 to 90% | 50 to 60% | 22.88% | 04.82% | 19.07% | 53.23% | 23.89% | Kd (HQF DNA d(TTAGGG)4): ~100 nM; K1 x 10^-7 (HQF DNA d(TTAGGG)4): 1.35 (± 0.1); ΔTm ([1]; derived from two Tm (42 and 27 °C)): 15 °C |
| Cc1cn([C@H]2C[C@H](n3cc(-c4ccc(Cl)cc4)nn3)[C@@H](CO)O2)c(=O)[nH]c1=O [Ligand L3, 1-(4-(4-(4-chlorophenly)-1H-1,2,3-triazole-1-yl)-5-(hydroxymethyl)tetrahydrofuran-2-yl)-5-methylpyrimidine-2,3(1H,3H)-dione] | 2.82 (±0.5) | 40 (±6) days | about 6 weeks | ++ (Viable cells in the range of 50%–60%) | +++ (Viable cells which are equal or less than 30%) | ++/++ (Viable cells in the range of 50%–60%) | ++/++ (Viable cells in the range of 50%–60%) | ++ (Viable cells in the range of 50%–60%) | +++ (Viable cells which are equal or less than 30%) | 80 to 90% | 50 to 60% | 80 to 90% | 50 to 60% | 80 to 90% | 50 to 60% | 17.79% | 20.99% | 60.26% | 00.96% | 81.25% | Kd (HQF DNA d(TTAGGG)4): ~100 nM; ΔTm ([1]; derived from two Tm (52 and 27 °C)): 25 °C |
